In patent publication US12502379B2, “Ponesimod for avoiding worsening of fatigue-related symptoms in multiple sclerosis patients” (Vanda Pharmaceuticals Inc., priority 2019, dated 2025):

Key:
[1] = Treatment-emergent adverse events, Safety Set
Description: A prospective, multicenter, randomized, double-blind, active controlled, parallel-group, phase III, superiority study was conducted.
The Safety Set (SAF) included all randomized subjects who received at least one dose of study treatment. Subjects were analyzed based on actual treatment taken, not randomized treatment.

[2] = Reasons for premature treatment discontinuation; type: in vivo; conditions: ponesimod 20 mg, teriflunomide 14 mg
Description: A total of 1468 subjects were screened. Of those, 1133 subjects were randomized (567 to ponesimod 20 mg and 566 to teriflunomide 14 mg) across 162 sites in 28 countries, and 1131 subjects received at least one dose of study drug. The disposition of subjects is summarized in Table 1 and a summary of reasons (primary reason) for treatment discontinuation are shown in Table 2. Overall treatment and study discontinuation were balanced across both treatment arms. A total of 6.5% and 2.5% of the subjects discontinued due to AEs or tolerability related reasons in ponesimod 20 mg and teriflunomide 14 mg, respectively, while 1.9% and 4.3% discontinued due to efficacy related reasons. There were 2 deaths reported during the study—both on teriflunomide 14 mg.

[3] = system: adult subjects with relapsing MS; experiment: FSIQ-RMS weekly symptoms score, change from baseline to Week 108; type: in vivo, human; conditions: FSIQ-RMS weekly symptoms score
Description: In some embodiments, the patient-reported outcome questionnaire is the Fatigue Symptoms and Impact Questionnaire—Relapsing Multiple Sclerosis (FSIQ-RMS) (available from Mapi Research Trust). The FSIQ-RMS is an MS specific 20-item PRO measure that comprises 2 domains: one measuring MS symptoms and one measuring MS-related impacts. See Hudgens S, et al., Development and Validation of the FSIQ-RMS: A New Patient-Reported Questionnaire to Assess Symptoms and Impacts of Fatigue in Relapsing Multiple Sclerosis. Value Health. 2019 April; 22 (4): 453-466. doi: 10.1016/j.jval.2018.11.007. Epub 2019 Feb. 21. PubMed PMID: 30975397. With 7 symptom items and 13 impact items (in 3 impacts subdomains: physical, cognitive and emotional, and coping), the FSIQ-RMS is a comprehensive, valid, and reliable measure of fatigue-related symptoms and impacts in RMS patients. FIG. 2B depicts a conceptual framework for the FSIQ-RMS.
(§1) In some embodiments, the patient-reported outcome questionnaire is the symptom domain of the FSIQ-RMS. The FSIQ-RMS symptom domain (FSIQ-RMS-S) consists of seven items assessing fatigue-related symptoms with a recall period of 24 hours measured on an 11-point numeric rating scale; the standardized symptom domain score ranges from 0 to 100 with a higher score indicating greater fatigue. This domain (i.e., section 1 of the questionnaire) is completed on 7 consecutive days.
The patient-reported outcome questionnaire used for the below Examples is the Fatigue Symptoms and Impact Questionnaire-Relapsing Multiple Sclerosis (FSIQ-RMS). The FSIQ-RMS is an MS specific 20-item PRO measure that comprises 2 domains: one measuring MS symptoms (7 items) and one measuring MS-related impacts (13 items). The 7 symptom items and 13 impact items (in 3 impacts subdomains: physical, cognitive and emotional, and coping) are presented below.
For the MS symptoms domain, the FSIQ-RMS asks about a patient's fatigue-related symptoms of relapsing MS over the past 24 hours while doing routine daily activities (e.g., housework, yard work, shopping, working, etc.) for Items 1-6 or while at rest (e.g., reading a book, watching TV, etc.) for Item 7. Patients are asked to select a response on a scale of Oto 10 that best describes their experience and are asked to not skip any questions, with no answers being right or wrong.
Secondary efficacy variables and testing strategy: Four secondary efficacy endpoints were analyzed as per the statistical testing strategy outlined in FIG. 1. • Change from baseline to Week 108 in fatigue-related symptoms as measured by the symptoms domain of the FSIQ-RMS patient-reported outcome [Fatigue] • Cumulative number of combined unique active lesions from baseline to Week 108 on brain MRI [CUALs] • Time to first 12-week confirmed disability accumulation (CDA) from baseline to EOS on Expanded Disability Status Scale (EDSS) [12-week CDA] • Time to first 24-week CDA from baseline to EOS on EDSS [24-week CDA]
as §1, with “The” for “In some embodiments, the patient-reported outcome questionnaire is the symptom domain of the FSIQ-RMS. The”
FSIQ-RMS was completed during the pre-randomization period, at Visits 6, 7, 10, and 12 (Weeks 12, 24, 60, 84), 14 (EOT), and at unscheduled visits due to relapses (R1, R2, etc.) or other unscheduled visits (U1, U2, etc.) as described below. If applicable, FSIQ-RMS was performed at the corresponding visits in the PTOP.
The completion of the FSIQ-RMS during the pre-randomization period was done as follows: At Visit 1 (Screening), subjects who appear eligible based on the assessments made during this visit (but prior to the results from the laboratory assessments are received) were provided with the electronic device containing the FSIQ-RMS. […]

[4] = ALT increase relative to ULN; type: in vivo, human; conditions: ponesimod 20 mg arm, teriflunomide 14 mg arm
[5] = 12-lead ECG heart rate on Day 1, change from pre-dose; type: in vivo, human
Description: As per up-titration regimen, the dose of ponesimod on Day 1 is 2 mg.

[6] = other S1P receptor modulators, for comparison; cited from earlier work
[7] = Day 1 (ponesimod dose 2 mg per up-titration), Safety Set, N = 565 / 566
[8] = Safety Set, ponesimod 20 mg N = 565, teriflunomide 14 mg N = 566
[9] = ponesimod 20 mg, teriflunomide 14 mg
[10] = patients without Gd+T1 lesions at baseline

Structure (SMILES): C/C(O)=C(\C#N)C(=O)Nc1ccc(C(F)(F)F)cc1 [Teriflunomide]
- AESI effect on heart rate and rhythm (including hypotension) on Day 1: Subjects with at least one AE [1, 7]: 0.4%
- AESI heart rate and rhythm on Day 1, PT: Atrioventricular block first degree [1, 7]: 0 n
- AESI heart rate and rhythm on Day 1, PT: Bradycardia [1, 7]: 0 n
- AESI heart rate and rhythm on Day 1, PT: Bundle branch block left [1, 7]: 0 n
- AESI heart rate and rhythm on Day 1, PT: Bundle branch block right [1, 7]: 0 n
- AESI heart rate and rhythm on Day 1, PT: Defect conduction intraventricular [1, 7]: 0 n
- AESI heart rate and rhythm on Day 1, PT: Sinus arrhythmia [1, 7]: 0 n
- AESI heart rate and rhythm on Day 1, PT: Sinus bradycardia [1, 7]: 0 n
- Subject with at least one AE (treatment-emergent) [1, 8]: 88.2%
- Subject with at least one AE leading to study drug discontinuation [1, 8]: 6.0%
- Subject with at least one Serious AE [1, 8]: 8.1%
- TEAEs leading to premature discontinuation of study drug, SOC: Eye disorders [1, 8]: 0 n
- TEAEs leading to premature discontinuation of study drug, SOC: Respiratory, thoracic and mediastinal disorders [1, 8]: 0 n
- TEAEs leading to premature discontinuation of study drug, SOC: Vascular disorders [1, 8]: 0 n
- Treatment-emergent AESI: Hepatobiliary disorders/Liver enzyme abnormality [1, 8]: 14.5%
- Treatment-emergent AESI: Hypertension [1, 8]: 9.0%
- Treatment-emergent AESI: Pulmonary events [1, 8]: 2.7%
- TEAE: ALT increased [1, 9]: 9.4%
- TEAE: headache [1, 9]: 12.7%
- TEAE: nasopharyngitis [1, 9]: 16.8%
- TEAE: upper respiratory tract infection [1, 9]: 10.4%
- Subjects who discontinued due to AEs or tolerability related reasons [2]: 2.5%
- Change From Baseline to Week 108: Stable or Improved ([3]; patients with baseline fatigue below the median): about 55%
- Change From Baseline to Week 108: Stable or Improved [3, 10]: 57.0%
- Change From Baseline to Week 108: Worsened (≥6.3) [3, 10]: 43.0%
- Change From Baseline to Week 108: Stable or Improved ([3]; patients without Gd+T1 lesions at baseline, listed as teriflunomide): about 57%
- Proportion of subjects who experienced ALT increase >3×ULN [4]: 8.3%
- Proportion of subjects who experienced ALT increase >8×ULN [4]: 2.1%
- Mean heart rate reduction compared to pre-dose (maximum) ([5]; Day 1, 2-hours post dose, ponesimod arm dose on Day 1 is 2 mg): −1.7 bpm
- Subjects with asymptomatic post-dose HR≤40 bpm ([5]; Day 1, all had pre-treatment HR<55 bpm): none

Structure (SMILES): CCCCCCCCc1ccc(CCC(N)(CO)CO)cc1 [fingolimod]
- ECG HR effect: nadir post-dose [6]: ~6 h

Structure (SMILES): CCc1cc(/C(C)=N/OCc2ccc(C3CCCCC3)c(C(F)(F)F)c2)ccc1CN1CC(C(=O)O)C1 [siponimod]
- ECG HR effect: nadir post-dose [6]: 3 to 4 h
